The test system of test [1] is alpha-Gal epitope. Briefly: inactivation test of alpha-Gal epitopes in samples of milk substitutes based on rice and soya (M86 antibody incubation, centrifugation, alpha-Gal/HSA ELISA). It counts as biochemical. Conditions: milk substitute based on rice and soya, caffeic acid 0.3% w/v (method: 0.5±0.05% w/v), ambient temperature. As to the method:
Three solutions are made up, using a milk substitute based on rice and soya as solvent, for example a substitute comprising 17% rice, 17% soy seeds, in a total volume of 50 ml. In the present example, which is non-limiting of the invention, extracts of “Lippia citriodora” are used, titrated at 93% verbascoside. […] These solutions are left to act under moderate but constant stirring, for a total of 3±0.1 hours at 25±5° C. Samples are taken at 30±2 minutes, 1±0.1 hour and 3±0.1 hours. An aliquot of milk is taken from each sampling, comprised between 200 and 500 ul, and preferably a dose of 300 ul, to which a buffer is added, Na3C6H5O7 at pH 7.0±0.5, until a final volume is reached comprised between 1000 and 1500 ul, and preferably a final volume of 1500 ul. Then a murine antibody, directed against the alpha-Gal epitope, is added, for example an IgM clone called M86, at the preferable concentration of [1:50] w/v and the whole is incubated for 120±10 minutes at 37±2° C. under constant but moderate stirring. At the end the samples are subjected to centrifugation at 10,000×g for 30±2 minutes at 4±2° C. During incubation with the M86 antibody, a plate with 96 wells is prepared with 100 ul per well of alpha-Gal/HSA (Human Serum Albumin) at 5 ug/ml in a PBS buffer (pH 7.0±0.5). The plate thus prepared is incubated for 60±10 minutes at a temperature comprised between 30° C.-40° C., although it is preferable to stabilize everything at 37±2.0° C. Then 3 washes are carried out with 300 ul per well of PBS (physiological pH) at ambient temperature. The first wash is left to act for 5 minutes, the two subsequent washes for 3 minutes each. […] Then 50 ul per well of the stop solution is added, which is constituted by H2SO4 2M and the plate is then read in a plate reader at the wavelength of 450 nm. The test of inactivation is based on the comparison between the absorbance values of column number 1 which constitutes the blank value (100% of antibody available) and the respective columns of the samples. […]
A general note: In an ELISA, binding on a coated surface is turned into a signal by an enzyme label.

Test [2] concerns alpha-Gal epitope. The experiment in a line: inactivation test of alpha-Gal epitopes in samples of cow's milk (M86 antibody incubation, centrifugation, alpha-Gal/HSA ELISA). The format is biochemical. Conditions: 0.5% w/v, ambient temperature. As to the method:
incubating samples of milk with the addition of an antibody aimed at the alpha-Gal epitope that is present in the milk; in such embodiment, the antibody is for example a murine monoclonal antibody M86; it should be understood that all mono- or polyclonal antibodies and/or antibodies belonging to different isotypes, which have shown a proven specificity against the antigen in question, can be used; in general, the anti-xenoantigen antibody is an antibody specifically aimed at the alpha-Gal epitope;
separating, by way of centrifugation, the resulting immune complex created owing to the bond between antigen and antibody;
preparing a plate with 96 wells for the E.L.I.S.A. text with coating comprising the xenoantigen epitope, i.e. an alpha-Gal/human serum albumin coating;
adding, in the wells, supernatant taken from the milk samples subjected to centrifuge; the supernatant contains the part of anti-alpha-Gal antibody that has not bonded with epitopes; as is known, a column of wells is adapted to define a reference value, known in the jargon as ‘blank value’, that corresponds to the maximum signal between antibody and epitopes,
completing the plate with a secondary antibody conjugated with an enzyme, or other molecule for qualitative or quantitative evaluation through colorimetric assay, adapted to chromatically highlight the presence if any of the anti-alpha-Gal antibody; in the present embodiment, the secondary antibody is constituted by a rabbit polyclonal anti-mouse antibody, conjugated with the peroxidase enzyme, or with other types, enzymatic or otherwise, capable of providing qualitative or quantitative indications through colorimetric assay;
reading the plate, determining the presence of anti-alpha-Gal antibody that has remained free in the solutions of the samples;
comparing the absorbance values detected in the column that defines the reference values with the values detected in the other columns of samples of the plate.
Two solutions are made up with different concentrations of phenylpropanoid, using the milk as solvent in a total volume of 50 ml. In this specific example, which obviously should be understood to be non-limiting of the invention, an extract of “Lippia Citriodora” was used, titrated at 93% verbascoside. […]
These solutions are left to act under moderate but constant stirring, for a total of […] at 25±5° C.
Samples are taken at 30±2 minutes, 1±0.1 hour and 3±0.1 hours.
An aliquot of milk is taken from each sampling, comprised between 200 ul and 500 ul, and preferably 300 ul, to which a buffer is added, Na3C6H5O7 0.2M at pH 7.0±0.5, until a final volume is reached comprised between 1000 ul and 1500 ul, and preferably a final volume of 1500 ul.
Then a murine antibody, directed against the alpha-Gal epitope, is added (in the present example this is an IgM clone called M86), at the preferable concentration of [1:50] w/v and the whole is incubated for 120±10 minutes at 37±2° C. under constant but moderate stirring.
At the end the samples are subjected to centrifugation at 10,000×g for 30±2 minutes at 4±2° C.
During incubation with the M86 antibody, a plate with 96 wells is prepared with 100 ul per well of alpha-Gal/HSA (Human Serum Albumin) at 5 ug/ml in a PBS buffer (pH 7.0±0.5).
The plate thus prepared is incubated for 60±10 minutes at a temperature comprised between 30° C.-40° C., although it is preferable to stabilize everything at 37° C.±2.0° C.
Then 3 washes are carried out with 300 ul per well of PBS (physiological pH) at ambient temperature.
The first wash is left to act for 5 minutes, the two subsequent washes for 3 minutes each.
The blocking is done with 300 ul per well of 2±0.5% of serum albumin in PBS, followed by covering the plate with protective film and incubation for 60±10 minutes at ambient temperature, in darkness.
Subsequently 3 washes are performed as above. […]

In the case of `O=C(O)/C=C/c1ccc(O)c(O)c1` [caffeic acid], the antigens inactivated was determined as 61.8±2.8% with alpha-Gal epitope [1] (after 30 minutes); 78.3±4.1% with alpha-Gal epitope [1] (after 1 hour); 89.2±1.8% with alpha-Gal epitope [1] (after 3 hours of incubation); 51.2±4.2% in the test with alpha-Gal epitope [2] (after 30 minutes); 61.1±2.6% with alpha-Gal epitope [2] (after 1 hour); 72.3±2.8% with alpha-Gal epitope [2] (after 3 hours of incubation).
With `O=C(OC[C@H]1O[C@@H](OC(=O)c2cc(O)c(O)c(OC(=O)c3cc(O)c(O)c(O)c3)c2)[C@H](OC(=O)c2cc(O)c(O)c(OC(=O)c3cc(O)c(O)c(O)c3)c2)[C@@H](OC(=O)c2cc(O)c(O)c(OC(=O)c3cc(O)c(O)c(O)c3)c2)[C@@H]1OC(=O)c1cc(O)c(O)c(OC(=O)c2cc(O)c(O)c(O)c2)c1)c1cc(O)c(O)c(OC(=O)c2cc(O)c(O)c(O)c2)c1` [tannic acid], the antigens inactivated with alpha-Gal epitope [2] (after 30 minutes) is reported as 67.7±7.1%; in the test with alpha-Gal epitope [2] (after 1 hour) it was 71.8±2.2%; in the test on alpha-Gal epitope [2] (after 3 hours of incubation), 80.6±1.8%.

For the origin of these results see patent US11366090B2, “Method for the inactivation and inactivation testing of xeno antigens in foods of animal origin, particularly for milk and derivatives, and in foods of plant origin, particularly for milk substitutes based on soy and/or rice” (Biocompatibility Innovation S.R.L., priority 2016, dated 2022).
